# Values joined by “and” are separate entries in the source; they are usually repeats but may differ in a detail not shown here. Equal values may be shown once.
# How the values were obtained:
# JEV = test: virus yield reduction assay, JEV; format: cell-based; conditions: Japanese encephalitis virus, Vero, read-out: JEV EC50
# Experimental: (§1) This example describes an assay used to evaluate inhibitor antiviral activity. Inhibitor screening, virus yield reduction, and cytotoxicity assays all employed Vero cells and media containing 2% FCS. Compound libraries were assayed for WNV antiviral activity by screening for protection of infected Vero cells from WNV cytopathic effects (CPE). To do so, 10^4 Vero cells in 96 well plate wells were pretreated with a final concentration of 10 μg/mL drug in a total volume of 1 μL DMSO, infected with WNV at a multiplicity of infection (MOI) of 0.2, and screened for protection from CPE for 3-5 d post-infection (PI). Virus yield reduction assays were modified from previous protocols (Hirsch, A., Medigeshi, G., Meyers, H., DeFilippis, V., Fruh, K., Briese, T., Lipkin, W. I., and Nelson, J. (2005). The Src family kinase c-Yes is required for maturation of West Nile virus particles. J. Virol. 79, 11943-11951). Briefly, 10^4 Vero cells in 96 well plate wells were treated with compound dilutions in 1 μL DMSO, and infected with WNV at an MOI of 1-3. At 20-24 h PI, virus-containing media samples were titered by limiting dilution on fresh Vero cells. After 5 d, media were removed, and surviving cells were stained with 0.0375% crystal violet in ethanol. For cytotoxicity assays, 10^4 Vero cells per 96 well plate well were treated with compound dilutions, grown for 48 h, and subjected to colorimetric assays for dehydrogenase levels in metabolically active cells using MTS (3-[4,5-dimethylthiazol-2-yl)-5-[3-carboxymethyoxy phenyl]-2-[4-sulfophenyl]-2H-tetrazolium]; Promega) substrate. MTS cytotoxicity assay results were confirmed microscopically by scoring for Trypan Blue (0.2%) exclusion.
# (§2) Several antiviral sultams were evaluated in using these methods. The results, including CC50 and EC50 values for WNV and JEV, were determined by MTS cytotoxicity assays and virus yield reduction assays and are recorded in Table 2.
# [1] = system: West Nile virus (WNV; strain NY99); test: protection of mice from WNV lethality; format: in vivo, C57BL/6N mice; conditions: 400 pfu WNV s.c.
# Experimental: This example describes the protective effect exerted by examples of the disclosed compounds against challenge with flaviviruses. […] With reference to FIG. 2A, on day 0, two groups of five C57BL/6N mice each were injected subcutaneously with 400 plaque forming units (pfu) of West Nile virus (WNV; strain NY99). Four hours prior to virus infection, and at two and four days post-infection (PI), one set of mice was injected i.p. with 0.02 ml DMSO per mouse (mock), while the other set was injected with 10 mg/kg TYT-1 in 0.02 ml DMSO. Survival was tracked for 21 days PI, and results are plotted as overall percentage survival for each group, versus the number of days PI. […] With reference to FIG. 2B, two groups of C57BL/6N mice were infected on day 0 with WNV as described above. Prior to infection, the 15 mice in the mock group were injected subcutaneously with 0.025 ml of DMSO, while the 10 mice in the experimental group were injected with 10 mg/kg TYT-1 in DMSO. Mice subsequently were injected i.p. with DMSO or TYT-1 at days 2, 4, 6, 8; and survival was tracked as above. […] The combined results of these two trial yielded a survival rate of 6/20 for mock treated mice and 11/15 for TYT-1 treated mice.
# Vero cells [2] = test: MTS toxicity screening assay (3 d); format: cell-based; conditions: 10 μg/ml, subconfluent Vero cells
# Source text: TYT-1 was screened for toxicities using a colorimetric cell proliferation assay which employs MTS substrate to measure dehydrogenase activity in metabolically active cells (Barltrop, J. et al. (1991) 5-(3-carboxymethoxyphenyl)-2-(4,5-dimethylthiazoly)-3-(4-sulfophenyl)tetrazolium, inner salt (MTS) and related analogs of 3-(4,5-dimethyl thiazolyl)-2,5-diphenyltetrazolium bromide (mTT) reducing to purple water-soluble formazans as cell-viability indicators. Bioorg. & Med. Chem. Lett. 1, 611).
# In this assay, subconfluent Vero cells were untreated, or treated 3 d with 10 μg/ml compound, and then subjected to MTS dehydrogenase assays, in which 490 nm absorbance values are proportional to cell viability signals. Results were plotted as the percentage of all treated compounds versus the percentage of the assay signal for untreated samples. Thus, nontoxic compounds give a signal approximately 100% that of the untreated signal.
# WNV E [3] = test: WNV E protein expression by immunofluorescence; format: cell-based, West Nile virus; conditions: 10 μg/mL, Vero cells, MOI 3, 24 h PI
# Experimental: E protein expression was assayed by immunofluorescence and immunoblotting. Immunofluorescent and immunoblot detection of WNV E employed a commercially available anti-E monoclonal antibody (Chemicon Mab 8150). For immunofluorescence, Vero cells in DMEM, plus penicillin, streptomycin, and 2% FCS were mock-treated with DMSO, or treated with 10 μg/mL of inhibitor compound in DMSO, and infected with WNV at an MOI of 3. At 24 h PI, cells were processed for immunofluorescent detection of WNV E using a standard protocol at room temperature (Arvidson, B., Seeds, J., Webb, M., Finlay, L., and Barklis, E. (2003). Analysis of the retrovirus capsid interdomain linker region. Virology 308, 166-177). Briefly, washed cells were fixed 20 min in 3.7% formaldehyde in phosphate-buffered saline (PBS; 9.5 mM sodium potassium phosphate [pH 7.4], 137 mM NaCl, 2.7 mM KCl), washed, permeabilized 10 min in 0.2% Triton X-100 in PBS, washed, incubated 1 h with primary antibody diluted in DMEM plus 10% heat inactivated FCS (DMEM+FCS), washed, incubated 1 h with 1:1000 diluted Alexafluor594-conjugated goat anti-mouse secondary antibody (Molecular Probes; Invitrogen) in DMEM+FCS, washed, and mounted with PBS in 50% glycerol. Images were collected electronically on a Zeiss fluorescence microscope.
# A handful of E protein-positive cells was observed over the faint background staining of the majority of cells.
# WNV E [4] = test: WNV E protein expression by immunoblot; format: cell-based, West Nile virus; conditions: 5 μg/mL, Vero cells, MOI 5, 18 h PI
# Experimental: For immunoblot detection of WNV E Vero cells on […] in 1 mL media were mock-treated with 5 μL DMSO or treated with 5 μL 1 mg/mL inhibitor compound in DMSO (final concentration 5 μg/mL inhibitor compound), and infected with WNV at an MOI of 5. At 18 h PI, media were removed, cells were collected in IPB (10 mM Tris-hydrochloride [pH 7.5], 150 mM NaCl, 1 mM ethylenediaminetetraacetic acid (EDTA), 0.1% sodium dodecyl sulfate [SDS], 0.5% sodium deoxycholate, 1% Triton X-100, 0.02% sodium azide), mixed with 1 volume of 2 x sample buffer (12.5 mM Tris-hydrochloride [pH 6.8], 2% SDS, 20% glycerol, 0.25% bromphenol blue) plus 0.1 volume of β-mercaptoethanol (β-Me). Samples were frozen at −20° C., heated 5 min to 90° C. and subjected to SDS-polyacrylamide gel electrophoresis (SDS-PAGE). After electrophoresis and electroblotting onto nitrocellulose filters, WNV E proteins were detected using a dilution of Mab 8150 as the primary antibody, an alkaline phosphatase-conjugated goat anti-mouse IgG secondary antibody (Promega), and a BCIP (5-bromo-4-chloro-3-indolyl phosphate) plus NBT (nitroblue tetrazolium)-mediated color reaction for visualization.
# Immunoblotting was performed using a similar infection regime as in the immunofluorescence protocol. […] The WNV envelope protein was detected as a band at approximately 55 kDa in cells treated with DMSO, or with ineffective candidate inhibitors.
# WNV NY99 = test: RT real-time PCR quantitation of WNV RNA; format: cell-based, West Nile virus; conditions: 5 μg/ml, MOI 5, 18 h PI
# Experimental: Cells were DMSO mock-treated or treated with 5 μg/ml TYT-1, and then mock-infected or infected with WNV NY99 at an MOI of 5. At 18 h PI, RNAs were isolated from cells and subjected to reverse transcription (RT) real-time PCR quantitation of WNV RNA following the protocol of Briese et al. (Briese, T., Glass, W., and Lipkin, W. I. (2000). Detection of West Nile virus sequences in cerebrospinal fluid. Lancet 355, 1614-1615). […] Thus, inhibition of WNV NY99 replication by TYT-1 is accompanied by a reduction in viral protein and viral RNA expression levels.
# Vero cells [5] = test: MTS cytotoxicity assay (48 h); format: cell-based; conditions: highest drug concentrations employed
# Experimental: as §1, §2
# [6] = MTS cytotoxicity assay (48 h); format: cell-based; conditions: African green monkey; MTS, Vero cells, 48 h
# Experimental: as §1, §2
# WNV [7] = test: virus yield reduction assay, WNV; format: cell-based, West Nile virus; conditions: for EC50: West Nile virus, Vero, read-out: WNV EC50
# Experimental: as §1, §2
# WNV [8] = test: protection of infected Vero cells from WNV cytopathic effects; format: cell-based, West Nile virus; conditions: WNV 0.2 MOI
# Experimental: as §1, with “For cytotoxicity assays, 10^4 Vero cells per 96 well plate well were treated with compound dilutions, grown for 48 h, and subjected to colorimetric assays for dehydrogenase levels in metabolically active cells using MTS (3-[4,5-dimethylthiazol-2-yl)-5-[3-carboxymethyoxy phenyl]-2-[4-sulfophenyl]-2H-tetrazolium]; Promega) substrate. MTS cytotoxicity assay results were confirmed microscopically by scoring for Trypan Blue (0.2%) exclusion.” left out
compound,measurement,setting,value
"O=S1(=O)CS/C(=N\C(=S)N(c2ccccc2)c2ccccc2)N1c1ccccc1 [TYT-1, N′-(1,1-dioxido-2-phenyl-1,4,2-dithiazolidin-3-ylidene)-N,N-diphenylthiourea]",EC50,JEV,7 µM
same,animals succumbed at 21 days,"[1]; 10 mg/kg i.p. 4 h before infection and days 2, 4 PI, FIG. 2A",two out of five
same,"survival rate, combined results of two trials","[1]; 10 mg/kg, 21 days PI",11/15
same,MTS signal,Vero cells [2],136 % of untreated levels
same,cells expressing high levels of WNV E (immunofluorescence),WNV E [3],very few cells
same,E protein signal (immunoblot),WNV E [4],essentially no E protein signal
same,WNV RNAs per cell,WNV NY99,27 copies per cell
same,50% cytotoxicity,Vero cells [5],not obtained
same,CC50 at 48 h,[6],> 70 µM
same,reduction of viral titers,WNV [7]; 1 μg/ml,at least 100 fold
same,EC50,WNV [7],0.7 µM
same,reduction of WNV titers,WNV [7]; repeated tests,"100- to 10,000 fold and 100-10,000 fold"
"CC(C)N(C(=S)/N=C1\SC(C)S(=O)(=O)N1C)C(C)C (stereo not shown) [TYT-2, (2,5-dimethyl-1,1-dioxido-1,4,2-dithiazolidin-3-ylidene)bis(1-methylethyl)thiourea]",EC50,JEV,30 µM
same,CC50 at 48 h,[6],90 µM
same,EC50,WNV [7],30 µM
"CC(C)N(C(=S)/N=C1\SCS(=O)(=O)N1Cc1ccccc1)C(C)C [TYT-3, [1,1-dioxido-2-(phenylmethyl)-1,4,2-dithiazolidin-3-ylidene]bis(1-methylethyl)-thiourea]",EC50,JEV,8 µM
same,50% cytotoxicity,Vero cells [5],not obtained
same,CC50 at 48 h,[6],> 80 µM
same,EC50,WNV [7],80 µM
"O=S1(=O)CS/C(=N\C(=S)N(Cc2ccccc2)Cc2ccccc2)N1c1ccccc1 [TYT-4, (1,1-dioxido-2-phenyl-1,4,2-dithiazolidin-3-ylidene)-bis(phenylmethyl)-thiourea]",EC50,JEV,65 µM
same,CC50 at 48 h,[6],65 µM
same,EC50,WNV [7],22 µM
"NC(=O)c1ncn([C@@H]2O[C@H](CO)[C@@H](O)[C@H]2O)n1 [ribavirin, reference compound]",protection of cells from WNV challenge,WNV [8]; <100 μM,failed to protect cells
same,reduction of WNV titers,WNV [7]; 100 μM,10 fold
interferon alpha,protection of cells from WNV challenge,WNV [8]; 1000 IU/ml,failed to protect cells
